Results from ChEMBL document CHEMBL1759846, “Identification of potent, soluble, and orally active TRPV1 antagonists” (Bioorg Med Chem Lett, 2011).
Values after ≈ are worked out from the molar mass of the structure shown. Active and inactive are the calls of the source. The rule behind the calls is not given here.

Experiments:
[1] = biological target: Transient receptor potential cation channel subfamily V member 1 (Homo sapiens, UniProt Q8NER1); test: Antagonist activity at human TRPV1 expressed in CHO-K1 cells assessed as inhibition of capsaicin-induced intracellular Ca2+ influx by FLIPR assay; assay type: functional, cell-based
[2] = Aqueous solubility of the compound in 0.05 M phosphate buffer at pH 7.4 by shake-flask method; assay type: physicochemical
[3] = Octanol-water partition coefficient, log D of the compound at pH 7.4 by RP-HPLC analysis; assay type: physicochemical
[4] = Intrinsic clearance in rat liver microsomes; assay type: ADME, Microsome
[5] = Intrinsic clearance in human liver microsomes; assay type: ADME, Microsome
[6] = test system: Hepatocyte; test: Intrinsic clearance in rat hepatocytes; assay type: ADME, cell-based, Liver
[7] = Plasma protein binding in Wistar rat; assay type: ADME, cell-free; conditions: read-out: PPB (converted)
[8] = Plasma protein binding in human; assay type: ADME, cell-free; conditions: read-out: PPB (converted)
[9] = Cmax in Wistar rat at 10 mg/kg, po; assay type: ADME, organism-based; parameters: dose 10 mg/kg, route oral; conditions: in vivo
[10] = Volume of distribution at steady state in Wistar rat at 10 mg/kg, po and 2 mg/kg, iv; assay type: ADME, organism-based; conditions: in vivo, read-out: Vdss
[11] = Tmax in Wistar rat at 10 mg/kg, po; assay type: ADME, organism-based; parameters: dose 10 mg/kg, route oral; conditions: in vivo
[12] = Oral bioavailability in Wistar rat at 10 mg/kg; assay type: ADME, organism-based; conditions: in vivo
[13] = Clearance in Wistar rat at 10 mg/kg, po and 2 mg/kg, iv; assay type: ADME, organism-based; conditions: in vivo
[14] = Half life in Wistar rat plasma at 10 mg/kg, po and 2 mg/kg, iv; assay type: ADME, organism-based
[15] = test system: Rattus norvegicus; test: Antiinflammatory activity against capsaicin-induced thermal hyperalgesia in rat assessed as paw withdrawal latency at 3 to 30 umol/kg, po administered 2 hrs before capsaicin challenge measured after 15 mins; assay type: functional, organism-based
[16] = test system: Rattus norvegicus; test: Antiinflammatory activity against capsaicin-induced thermal hyperalgesia in po dosed rat assessed as paw withdrawal latency administered 2 hrs before capsaicin challenge measured after 15 mins; assay type: functional

Sequence of Transient receptor potential cation channel subfamily V member 1 (Q8NER1 whole entry): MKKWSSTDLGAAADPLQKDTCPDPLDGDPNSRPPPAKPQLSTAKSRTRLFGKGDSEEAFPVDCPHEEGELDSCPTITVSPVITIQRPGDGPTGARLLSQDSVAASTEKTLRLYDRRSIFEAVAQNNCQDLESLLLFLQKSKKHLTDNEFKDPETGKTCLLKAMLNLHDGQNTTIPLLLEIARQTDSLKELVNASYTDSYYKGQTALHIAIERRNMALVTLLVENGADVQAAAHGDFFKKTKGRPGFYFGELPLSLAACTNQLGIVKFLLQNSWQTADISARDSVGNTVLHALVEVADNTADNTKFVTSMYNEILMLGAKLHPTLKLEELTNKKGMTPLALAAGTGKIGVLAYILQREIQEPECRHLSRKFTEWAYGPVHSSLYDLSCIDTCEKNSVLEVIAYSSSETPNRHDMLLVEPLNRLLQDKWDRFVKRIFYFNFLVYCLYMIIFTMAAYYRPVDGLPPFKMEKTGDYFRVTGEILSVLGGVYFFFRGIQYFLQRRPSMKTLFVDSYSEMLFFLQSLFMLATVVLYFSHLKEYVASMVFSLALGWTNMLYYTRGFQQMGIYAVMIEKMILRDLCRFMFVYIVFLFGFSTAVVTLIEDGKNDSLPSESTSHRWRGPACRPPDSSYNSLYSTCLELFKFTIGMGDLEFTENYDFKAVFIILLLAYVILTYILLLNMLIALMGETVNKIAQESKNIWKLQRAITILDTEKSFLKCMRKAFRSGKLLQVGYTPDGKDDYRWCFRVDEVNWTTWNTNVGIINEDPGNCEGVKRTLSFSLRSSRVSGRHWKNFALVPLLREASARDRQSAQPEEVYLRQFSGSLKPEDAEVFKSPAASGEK

SMILES	IC50 [1] [nM]	solubility thermodynamic [2] [µg/mL]	logD [3]	microsomal CLint [4] [µL/min/mg]	microsomal CLint [5] [µL/min/mg]	fraction unbound [7]	fraction unbound [8]	further results
O=C(N[C@@H]1CCC[C@H](O)C1)c1noc(-c2ccc(C(F)(F)F)cc2)c1CNC1CCC1	15.8	26 (≈ 59.4 µM)	4.3	–	–	–	–	–
CC(C)(CO)CNCc1c(C(=O)N[C@@H]2CCC[C@H](O)C2)noc1-c1ccc(C(F)(F)F)cc1	3.16	89 (≈ 190 µM)	3.5	93	12	0.168	0.361	CL [6]: 10 µL/min
C[C@H](NCc1c(C(=O)N[C@@H]2CCC[C@H](O)C2)noc1-c1ccc(C(F)(F)F)cc1)C(F)(F)F	0.158	3.5 (≈ 7.3 µM)	5.6	49	66	0.037	0.048	–
CCN(Cc1c(C(=O)N[C@@H]2CCC[C@H](O)C2)noc1-c1ccc(C(F)(F)F)cc1)C(C)C	25.1	85 (≈ 187 µM)	4.1	–	–	–	–	–
NC(=O)C1CCN(Cc2c(C(=O)N[C@@H]3CCC[C@H](O)C3)noc2-c2ccc(C(F)(F)F)cc2)CC1	3160	30 (≈ 60.7 µM)	3.6	–	–	–	–	–
COCCN(C)Cc1c(C(=O)N[C@@H]2CCC[C@H](O)C2)noc1-c1ccc(C(F)(F)F)cc1	7.94	83 (≈ 182 µM)	4	–	–	–	–	–
CC(C)[C@H](CO)NCc1c(C(=O)N[C@@H]2CCC[C@H](O)C2)noc1-c1ccc(C(F)(F)F)cc1	2.51	79 (≈ 168 µM)	4.2	41	12	0.116	0.256	Cmax [9]: 230 nM; Vd [10]: 3.5 L/kg; Tmax [11]: 1.5 h; bioavailability [12]: 4%; clearance [13]: 13.5 mL/min/kg; half-life [14]: 4.3 h
CN(Cc1c(C(=O)N[C@@H]2CCC[C@H](O)C2)noc1-c1ccc(C(F)(F)F)cc1)C[C@@H]1CCCO1	5.01	31 (≈ 64.4 µM)	3.6	–	–	–	–	–
CC(C)CNCc1c(C(=O)N[C@@H]2CCC[C@H](O)C2)noc1-c1ccc(C(F)(F)F)cc1	1	78 (≈ 177 µM)	4.3	107	12	0.242	0.177	Cmax [9]: 420 nM; Activity [15]: Active; Vd [10]: 7.6 L/kg; Tmax [11]: 2 h; bioavailability [12]: 33%; MED [16]: 30 µmol/kg; CL [6]: 12 µL/min; clearance [13]: 69 mL/min/kg; half-life [14]: 4 h
O=C(N[C@@H]1CCC[C@H](O)C1)c1noc(-c2ccc(C(F)(F)F)cc2)c1CNCC(O)C(F)(F)F (some centres undefined)	10	87 (≈ 176 µM)	4.7	–	–	–	–	–
CN(Cc1c(C(=O)N[C@@H]2CCC[C@H](O)C2)noc1-c1ccc(C(F)(F)F)cc1)[C@@H]1CCOC1	12.6	6.6 (≈ 14.1 µM)	4.5	–	–	–	–	–
CC(C)[C@@H](CO)NCc1c(C(=O)N[C@@H]2CCC[C@H](O)C2)noc1-c1ccc(C(F)(F)F)cc1	10	81 (≈ 173 µM)	4.1	–	–	–	–	–
CN(CCS(C)(=O)=O)Cc1c(C(=O)N[C@@H]2CCC[C@H](O)C2)noc1-c1ccc(C(F)(F)F)cc1	1260	26 (≈ 51.6 µM)	3.6	–	–	–	–	–
O=C(N[C@@H]1CCC[C@H](O)C1)c1noc(-c2ccc(C(F)(F)F)cc2)c1CNC1CC1	3.16	21 (≈ 49.6 µM)	4.5	< 12	17	0.064	0.118	CL [6]: < 6 µL/min
O=C(N[C@@H]1CCC[C@H](O)C1)c1noc(-c2ccc(C(F)(F)F)cc2)c1CNCC1CCC1	1.26	–	4.4	144	21	–	–	–
COCCNCc1c(C(=O)N[C@@H]2CCC[C@H](O)C2)noc1-c1ccc(C(F)(F)F)cc1	126	80 (≈ 181 µM)	3.7	–	–	–	–	–
CC(C)N(C)Cc1c(C(=O)N[C@@H]2CCC[C@H](O)C2)noc1-c1ccc(C(F)(F)F)cc1	25.1	80 (≈ 182 µM)	4	–	–	–	–	–
CC(C)NCc1c(C(=O)N[C@@H]2CCC[C@H](O)C2)noc1-c1ccc(C(F)(F)F)cc1	–	82 (≈ 193 µM)	3	< 12	< 12	0.271	0.25	Cmax [9]: 720 nM; Vd [10]: 5.9 L/kg; Tmax [11]: 2 h; bioavailability [12]: 20%; CL [6]: < 6 µL/min; clearance [13]: 12.5 mL/min/kg; half-life [14]: 7.9 h
CN(Cc1c(C(=O)N[C@@H]2CCC[C@H](O)C2)noc1-c1ccc(C(F)(F)F)cc1)C1CCOCC1	79.4	82 (≈ 170 µM)	3.7	–	–	–	–	–
O=C(N[C@@H]1CCC[C@H](O)C1)c1noc(-c2ccc(C(F)(F)F)cc2)c1CNCC1CC1	–	77 (≈ 176 µM)	3.5	55	48	–	–	–
